# Results taken from patent USRE40086E1, “Method for treating bacterial infection with novel 7-substituted-9-substituted amino 6-demethyl-6-deoxytetracyclines” (Wyeth Holdings Corporation, priority 1991, dated 2008).
# Where a name gives a salt, the structure may show the parent alone.
# Assays:
# [1] = system: tetracycline-susceptible E. coli; test: Resumption of bacterial growth after washing out the antibiotic (reversibility of binding); type: cell-based; settings: 30 minutes at growth inhibitory concentrations, then centrifugation and fresh medium
# Procedure: The antibiotics are added to exponentially growing cultures of tetracycline-susceptible E. coli at growth inhibitory concentrations. After 30 minutes, excess antibiotic is removed from the bacteria by centrifugation and the organism is resuspended in fresh growth medium. The ability of bacteria to resume growth is monitored. […] This reflects the different binding characteristics of the drugs.
# E. coli MC4100 TetB = test: MIC, agar dilution (Table IA); type: cell-based; settings: unit assumed
# E. coli #311 (MP) = test: MIC, agar dilution (Table IA); type: cell-based; settings: unit assumed
# [2] = system: S. aureus IVES 2943 (meth. resistant); test: MIC, agar dilution; type: cell-based; settings: S. aureus IVES 2943; Table IA; unit assumed
# S. aureus ROSE (MP) = test: MIC, agar dilution (Table IA); type: cell-based; settings: unit assumed
# [3] = system: S. aureus UBMS 90-3 (Sensitive); test: MIC, agar dilution; type: cell-based; settings: S. aureus UBMS 90-3; Table IA; unit assumed
# [4] = system: S. aureus IVES 1983 (meth. resistant); test: MIC, agar dilution; type: cell-based; settings: S. aureus IVES 1983; Table IA; unit assumed
# E. coli UBMS 90-4 (tetM) = test: MIC, agar dilution; type: cell-based; settings: E. coli UBMS 90-4 TetM; Table IA; unit assumed
# E. coli BAJ9003 = test: MIC, agar dilution (Table IA); type: cell-based; settings: unit assumed
# [5] = system: S. aureus UBMS 90-2 (tetM); test: MIC, agar dilution; type: cell-based; settings: S. aureus UBMS 90-2 TetM; Table IA; unit assumed
# E. coli UBMS 89-1 (tetM) = test: MIC, agar dilution; type: cell-based; settings: E. coli UBMS 89-1 TetM; Table IA; unit assumed
# [6] = system: S. aureus UBMS 88-7 (tetK); test: MIC, agar dilution; type: cell-based; settings: S. aureus UBMS 88-7 TetK; Table IA; unit assumed
# S. aureus SMITH (sens) [7] = test: In vivo antibacterial evaluation, acute lethal infection in mice; settings: Oral
# Source text: In Vivo Antibacterial Evaluation (Table VII)
# E. coli MC4100 Tet sens. = test: MIC, agar dilution (Table IA); type: cell-based; settings: unit assumed
# [8] = system: X. maltophilia NEMC 87210; test: MIC, agar dilution (Table IA); type: cell-based; settings: unit assumed
# E. faecalis 12201 = test: MIC, agar dilution; type: cell-based; settings: Enterococcus 12201; Table IA; unit assumed
# S. aureus SMITH (sens) [9] = test: In vivo antibacterial evaluation, acute lethal infection in mice; settings: Intraveneous
# E. coli J3272 TetD = test: MIC, agar dilution (Table IA); type: cell-based; settings: unit assumed
# [10] = system: S. aureus UBMS 90-1 (tetM); test: MIC, agar dilution; type: cell-based; settings: S. aureus UBMS 90-1 TetM; Table IA; unit assumed
# [11] = system: S. aureus UBMS 88-4 (Sensitive); test: MIC, agar dilution; type: cell-based; settings: S. aureus UBMS 88-4; Table IA; unit assumed
# [12] = system: Ps. acruginosa ATCC 27853; test: MIC, agar dilution (Table IA); type: cell-based; settings: unit assumed
# [13] = system: E. coli UBMS 89-2 (Sensitive); test: MIC, agar dilution; type: cell-based; settings: E. coli UBMS 89-2 Tet Sens.; Table IA; unit assumed
# E. coli UBMS 90-5 = test: MIC, agar dilution (Table IA); type: cell-based; settings: unit assumed
# [14] = system: S. aureus UBMS 88-5 (tetM); test: MIC, agar dilution; type: cell-based; settings: S. aureus UBMS 88-5 TetM; Table IA; unit assumed
# S. aureus NEMC 8769/89-4 = test: MIC, agar dilution (Table IA); type: cell-based; settings: unit assumed
# [15] = system: S. aureus ATCC 29213 (Sensitive); test: MIC, agar dilution; type: cell-based; settings: S. aureus ATCC 29213; Table IA; unit assumed
# [16] = system: S. aureus Smith (Sensitive); test: MIC, agar dilution; type: cell-based; settings: S. aureus SMITH (MP); Table IA; unit assumed
# E. coli ATCC 25922 = test: MIC, agar dilution; type: cell-based; settings: E. coli ATCC 25922; Table IA; unit assumed
# S. mariescens FDOR 8733 = test: MIC, agar dilution (Table IA); type: cell-based; settings: unit assumed
# E. faecalis ATCC 29212 = test: MIC, agar dilution; type: cell-based; settings: E. faecalis ATCC 29212; Table IA; unit assumed
# E. coli J2175 = test: MIC, agar dilution (Table IA); type: cell-based; settings: unit assumed
# E. coli J3272 TetC = test: MIC, agar dilution (Table IA); type: cell-based; settings: unit assumed
# [17] = system: S. haemolyticus AVAH 88-3; test: MIC, agar dilution; type: cell-based; settings: S. hemolyticus AVHAH 88-3; Table IA; unit assumed
# E. coli PRP1 TetA = test: MIC, agar dilution (Table IA); type: cell-based; settings: unit assumed
# E. coli UBMS 88-1 (tetB) = test: MIC, agar dilution; type: cell-based; settings: E. coli UBMS 88-1 TetB; Table IA; unit assumed
# [18] = system: TetM S30 extract, derivative of E. coli MRE600 containing the tetM determinant; test: E. coli in vitro transcription and protein translation, 35S-methionine incorporation (Table VIII)
# E. coli J3272 Tet sens. = test: MIC, agar dilution (Table IA); type: cell-based; settings: unit assumed
# [19] = system: Wild Type S30 extract, E. coli strain MRE600 (tetracycline sensitive); test: E. coli in vitro transcription and protein translation, 35S-methionine incorporation (Table VIII)
Compound,Antibacterial activity (MIC) (E. coli MC4100 TetB) [µg/mL],Antibacterial activity (MIC) (E. coli #311 (MP)) [µg/mL],Antibacterial activity (MIC) [2] [µg/mL],Antibacterial activity (MIC) (S. aureus ROSE (MP)) [µg/mL],Antibacterial activity (MIC) [3] [µg/mL],Antibacterial activity (MIC) [4] [µg/mL],Antibacterial activity (MIC) (E. coli UBMS 90-4 (tetM)) [µg/mL],Antibacterial activity (MIC) (E. coli BAJ9003) [µg/mL],Antibacterial activity (MIC) [5] [µg/mL],Antibacterial activity (MIC) (E. coli UBMS 89-1 (tetM)) [µg/mL],Antibacterial activity (MIC) [6] [µg/mL],ED50 (S. aureus SMITH (sens) [7]) [mg/kg],Antibacterial activity (MIC) [8] [µg/mL],Antibacterial activity (MIC) (E. faecalis 12201) [µg/mL],ED50 (S. aureus SMITH (sens) [9]) [mg/kg],Antibacterial activity (MIC) (E. coli J3272 TetD) [µg/mL],Antibacterial activity (MIC) [10] [µg/mL],Antibacterial activity (MIC) [11] [µg/mL],Antibacterial activity (MIC) [12] [µg/mL],Antibacterial activity (MIC) [13] [µg/mL],other results
CN(C)c1cc(NC=O)c(O)c2c1CC1CC3C(N(C)C)C(O)=C(C(N)=O)C(=O)C3(O)C(O)=C1C2=O (centres unmarked),,,,,,,,,,,,,,,,,,,,,ability of bacteria to resume growth after excess antibiotic is removed by washing [1]: bacterial growth resumed when the compound was removed
"CCCCCCNCC(=O)Nc1cc(N(C)C)c2c(c1O)C(=O)C1=C(O)[C@]3(O)C(=O)C(C(N)=O)=C(O)[C@@H](N(C)C)C3CC1C2 (stereo partly drawn) [BBB, [4S-(4alpha,12aalpha)]-4,7-Bis(dimethylamino)-9-[[(hexylamino)acetyl]amino]-1,4,4a,5,5a,6,11,12a-octahydro-3,10,12,12a-tetrahydroxy-1,11-dioxo-2-naphthacenecarboxamide dihydrochloride]",0.5,0.5,4,16,0.06,4,0.25,0.06,0.25,0.25,2,4 to 8,4,0.25,1.8,0.12,0.25,0.25,16,0.25,Antibacterial activity (MIC) (E. coli MC4100 Tet sens.): 0.25 µg/mL; Antibacterial activity (MIC) (E. coli UBMS 90-5): 0.25 µg/mL; Antibacterial activity (MIC) [14]: 0.5 µg/mL; Antibacterial activity (MIC) (S. aureus NEMC 8769/89-4): 0.06 µg/mL; Antibacterial activity (MIC) [15]: 0.25 µg/mL; Antibacterial activity (MIC) [16]: 0.12 µg/mL; Antibacterial activity (MIC) (E. coli ATCC 25922): 0.12 µg/mL; Antibacterial activity (MIC) (S. mariescens FDOR 8733): 4 µg/mL; Antibacterial activity (MIC) (E. faecalis ATCC 29212): 0.12 µg/mL; Antibacterial activity (MIC) (E. coli J2175): 0.25 µg/mL; Antibacterial activity (MIC) (E. coli J3272 TetC): 0.5 µg/mL; Antibacterial activity (MIC) [17]: 0.5 µg/mL; Antibacterial activity (MIC) (E. coli PRP1 TetA): 0.5 µg/mL; Antibacterial activity (MIC) (E. coli UBMS 88-1 (tetB)): 0.5 µg/mL
"CCCNCC(=O)Nc1cc(N(C)C)c2c(c1O)C(=O)C1=C(O)C3(O)C(=O)C(C(N)=O)=C(O)C(N(C)C)C3CC1C2.Cl.Cl (stereo not drawn) [WW, [4S-(4alpha,12aalpha)]-4,7-bis(dimethylamino)-1,4,4a,5,5a,6,11,12a-octahydro-3,10,12,12a-tetra-hydroxy-1,11-dioxo-9-[[(propylamino)acetyl]amino]-2-naphthacenecarboxamide dihydrochloride]",0.25,0.25,2,2,0.12,2,0.25,0.06,0.25,0.25,1,>16,0.5,0.12,0.82,0.12,0.12,0.25,8,0.25,% INHIBITION TetM S30 ([18]; 0.06 mg/ml): 88%; % INHIBITION TetM S30 ([18]; 0.2 mg/ml): 97%; % INHIBITION TetM S30 ([18]; 1.0 mg/ml): 98%; Antibacterial activity (MIC) (E. coli J3272 Tet sens.): 0.25 µg/mL; % INHIBITION Wild Type S30 ([19]; 0.06 mg/ml): 93%; % INHIBITION Wild Type S30 ([19]; 0.2 mg/ml): 99%; % INHIBITION Wild Type S30 ([19]; 1.0 mg/ml): 99%; Antibacterial activity (MIC) (E. coli UBMS 90-5): 0.25 µg/mL; Antibacterial activity (MIC) [14]: 0.25 µg/mL; Antibacterial activity (MIC) (S. aureus NEMC 8769/89-4): 0.06 µg/mL; Antibacterial activity (MIC) [15]: 0.25 µg/mL; Antibacterial activity (MIC) [16]: 0.12 µg/mL; Antibacterial activity (MIC) (E. coli ATCC 25922): 0.25 µg/mL; Antibacterial activity (MIC) (S. mariescens FDOR 8733): 2 µg/mL; Antibacterial activity (MIC) (E. faecalis ATCC 29212): 0.25 µg/mL; Antibacterial activity (MIC) (E. coli J2175): 0.25 µg/mL; Antibacterial activity (MIC) (E. coli J3272 TetC): 0.25 µg/mL; Antibacterial activity (MIC) [17]: 0.25 µg/mL; Antibacterial activity (MIC) (E. coli PRP1 TetA): 1 µg/mL; Antibacterial activity (MIC) (E. coli UBMS 88-1 (tetB)): 0.25 µg/mL
CC(C(=O)Nc1cc(N(C)C)c2c(c1O)C(=O)C1=C(O)[C@]3(O)C(=O)C(C(N)=O)=C(O)[C@@H](N(C)C)C3CC1C2)N(C)C.Cl.Cl (some centres unmarked) [XX],1,0.5,1,1,0.25,1,0.5,0.06,0.25,0.12,1,8 to 16,0.5,0.12,0.5 to 1,0.25,0.25,0.25,32,0.5,% INHIBITION TetM S30 ([18]; 0.06 mg/ml): 78%; % INHIBITION TetM S30 ([18]; 0.2 mg/ml): 89%; % INHIBITION TetM S30 ([18]; 1.0 mg/ml): 97%; Antibacterial activity (MIC) (E. coli J3272 Tet sens.): 0.5 µg/mL; % INHIBITION Wild Type S30 ([19]; 0.06 mg/ml): 85%; % INHIBITION Wild Type S30 ([19]; 0.2 mg/ml): 96%; % INHIBITION Wild Type S30 ([19]; 1.0 mg/ml): 98%; Antibacterial activity (MIC) (E. coli UBMS 90-5): 0.5 µg/mL; Antibacterial activity (MIC) [14]: 0.25 µg/mL; Antibacterial activity (MIC) (S. aureus NEMC 8769/89-4): 0.12 µg/mL; Antibacterial activity (MIC) [15]: 0.25 µg/mL; Antibacterial activity (MIC) [16]: 0.25 µg/mL; Antibacterial activity (MIC) (E. coli ATCC 25922): 0.5 µg/mL; Antibacterial activity (MIC) (S. mariescens FDOR 8733): 4 µg/mL; Antibacterial activity (MIC) (E. faecalis ATCC 29212): 0.12 µg/mL; Antibacterial activity (MIC) (E. coli J2175): 0.5 µg/mL; Antibacterial activity (MIC) (E. coli J3272 TetC): 1 µg/mL; Antibacterial activity (MIC) [17]: 0.5 µg/mL; Antibacterial activity (MIC) (E. coli PRP1 TetA): 1 µg/mL; Antibacterial activity (MIC) (E. coli UBMS 88-1 (tetB)): 0.5 µg/mL
polymyxin [reference compound],,,,,,,,,,,,,,,,,,,,,ability of bacteria to resume growth after excess antibiotic is removed by washing [1]: continues to prevent bacterial growth even when excess antibiotic is removed
